Columns and labels:
[1] = target: Tyrosine-protein kinase FRK (Homo sapiens) (UniProt P42685); settings: Compound concentration 1000.0 nM
[2] = target: ALK tyrosine kinase receptor (Homo sapiens) (UniProt Q9UM73); settings: Compound concentration 1000.0 nM
[3] = system: Epidermal growth factor receptor (Homo sapiens), P00533 [UNDEFINED MUTATION]; settings: Compound concentration 1000.0 nM
[4] = target: Phosphorylase b kinase regulatory subunit alpha, liver isoform (Homo sapiens) (UniProt P46019); settings: Compound concentration 1000.0 nM
[5] = target: Mitogen-activated protein kinase kinase kinase 14 (Homo sapiens) (UniProt Q99558); settings: Compound concentration 1000.0 nM
[6] = target: Tyrosine-protein kinase JAK1 (Homo sapiens) (UniProt P23458); settings: Compound concentration 1000.0 nM
[7] = target: T1, Alpha-2A adrenergic receptor (Homo sapiens) (UniProt P08913); assay: alpha 2A (h) CEREP ligand profiling; settings: filed as antagonist, Compound concentration 10.0 uM
T1 sequence (whole entry): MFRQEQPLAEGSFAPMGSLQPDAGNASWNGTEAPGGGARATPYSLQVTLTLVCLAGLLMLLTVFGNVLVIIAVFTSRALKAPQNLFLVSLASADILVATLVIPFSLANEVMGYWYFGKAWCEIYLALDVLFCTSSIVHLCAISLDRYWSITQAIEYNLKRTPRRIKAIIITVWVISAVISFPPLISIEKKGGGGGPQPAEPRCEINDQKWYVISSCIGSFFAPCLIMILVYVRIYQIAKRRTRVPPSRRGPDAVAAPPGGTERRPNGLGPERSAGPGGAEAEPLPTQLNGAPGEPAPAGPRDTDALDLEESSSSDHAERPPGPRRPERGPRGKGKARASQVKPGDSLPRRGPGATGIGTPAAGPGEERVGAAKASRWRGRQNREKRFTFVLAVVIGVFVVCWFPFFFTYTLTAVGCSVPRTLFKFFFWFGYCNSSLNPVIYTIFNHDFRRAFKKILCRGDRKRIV

[8] = target: Na+ channel (site 2); sodium channel alpha subunit (family) (Homo sapiens, UniProt P35498+P35499+Q01118+Q14524+Q15858+Q99250+Q9NY46+Q9UI33+Q9UQD0+Q9Y5Y9); assay: Na+ channel (site 2) CEREP ligand profiling; format: protein assay; settings: compound concentration 10 uM
[9] = target: Calcium/calmodulin-dependent protein kinase kinase 1 (Homo sapiens) (UniProt Q8N5S9); settings: Compound concentration 1000.0 nM
[10] = target: T2, Alpha-2B adrenergic receptor (Homo sapiens) (UniProt P18089); assay: alpha 2B (h) CEREP ligand profiling; settings: filed as antagonist, Compound concentration 10.0 uM
T2 sequence (whole entry): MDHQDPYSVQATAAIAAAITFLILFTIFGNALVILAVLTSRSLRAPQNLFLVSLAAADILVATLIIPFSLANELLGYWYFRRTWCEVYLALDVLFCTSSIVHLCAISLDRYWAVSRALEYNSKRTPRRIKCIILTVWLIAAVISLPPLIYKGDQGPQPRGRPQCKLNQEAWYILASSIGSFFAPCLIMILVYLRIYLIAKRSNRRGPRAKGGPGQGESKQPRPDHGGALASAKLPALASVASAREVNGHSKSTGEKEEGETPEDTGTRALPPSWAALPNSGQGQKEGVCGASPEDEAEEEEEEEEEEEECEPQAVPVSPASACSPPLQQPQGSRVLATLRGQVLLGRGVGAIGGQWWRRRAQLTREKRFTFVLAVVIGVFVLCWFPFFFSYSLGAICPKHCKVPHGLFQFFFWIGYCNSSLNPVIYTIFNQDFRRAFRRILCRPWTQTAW

[11] = target: Adenosine receptor A2a (Homo sapiens) (UniProt P29274); assay: A2A (h) CEREP ligand profiling; settings: filed as agonist, Compound concentration 10.0 uM
[12] = target: Mitotic checkpoint serine/threonine-protein kinase BUB1 (Homo sapiens) (UniProt O43683); settings: Compound concentration 1000.0 nM
[13] = target: Serine/threonine-protein kinase N2 (Homo sapiens) (UniProt Q16513); settings: Compound concentration 1000.0 nM
[14] = target: Receptor-interacting serine/threonine-protein kinase 4 (Homo sapiens) (UniProt P57078); settings: Compound concentration 1000.0 nM
[15] = target: Macrophage colony-stimulating factor 1 receptor (Homo sapiens) (UniProt P07333); settings: Compound concentration 1000.0 nM
[16] = target: Serine/threonine-protein kinase BRSK1 (Homo sapiens) (UniProt Q8TDC3); settings: Compound concentration 1000.0 nM
[17] = target: Dual specificity tyrosine-phosphorylation-regulated kinase 1B (Homo sapiens) (UniProt Q9Y463); settings: Compound concentration 1000.0 nM
[18] = target: Muscarinic acetylcholine receptor M3 (Homo sapiens) (UniProt P20309); settings: Compound concentration 10.0 uM
[19] = target: Cyclin-dependent kinase 4 (Homo sapiens) (UniProt P11802); settings: Compound concentration 1000.0 nM
[20] = target: Tyrosine-protein kinase Fyn (Homo sapiens) (UniProt P06241); settings: Compound concentration 1000.0 nM
[21] = target: RAC-beta serine/threonine-protein kinase (Homo sapiens) (UniProt P31751); settings: Compound concentration 1000.0 nM
[22] = target: Transient receptor potential cation channel subfamily M member 6 (Homo sapiens) (UniProt Q9BX84); settings: Compound concentration 1000.0 nM
[23] = target: TGF-beta receptor type-2 (Homo sapiens) (UniProt P37173); settings: Compound concentration 1000.0 nM
[24] = target: Serine/threonine-protein kinase Nek1 (Homo sapiens) (UniProt Q96PY6); settings: Compound concentration 1000.0 nM
[25] = target: RAC-gamma serine/threonine-protein kinase (Homo sapiens) (UniProt Q9Y243); settings: Compound concentration 1000.0 nM
[26] = target: Dual specificity protein kinase CLK2 (Homo sapiens) (UniProt P49760); settings: Compound concentration 1000.0 nM
[27] = target: Serine/threonine-protein kinase PAK 5 (Homo sapiens) (UniProt Q9P286); settings: Compound concentration 1000.0 nM
[28] = target: Serine/threonine-protein kinase MRCK beta (Homo sapiens) (UniProt Q9Y5S2); settings: Compound concentration 1000.0 nM
[29] = target: Proto-oncogene tyrosine-protein kinase receptor Ret (Homo sapiens) (UniProt P07949); settings: Compound concentration 1000.0 nM
[30] = target: Mitogen-activated protein kinase 12 (Homo sapiens) (UniProt P53778); settings: Compound concentration 1000.0 nM
[31] = target: Cyclin-dependent kinase 4 (Homo sapiens) (UniProt P11802); settings: Compound concentration 1000.0 nM; remark: listed apart in the source

Cyclin-dependent kinase 4 (Homo sapiens), sequence (P11802 whole entry): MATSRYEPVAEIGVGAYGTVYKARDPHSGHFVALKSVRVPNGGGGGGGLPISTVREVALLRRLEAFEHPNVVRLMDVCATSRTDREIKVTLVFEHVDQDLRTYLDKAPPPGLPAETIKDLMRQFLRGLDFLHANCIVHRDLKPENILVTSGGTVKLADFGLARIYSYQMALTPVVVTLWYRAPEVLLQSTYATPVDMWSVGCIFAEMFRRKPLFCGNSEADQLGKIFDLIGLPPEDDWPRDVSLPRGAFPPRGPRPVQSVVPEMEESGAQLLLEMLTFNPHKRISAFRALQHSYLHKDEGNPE
Serine/threonine-protein kinase Nek1 (Homo sapiens), sequence (Q96PY6 whole entry): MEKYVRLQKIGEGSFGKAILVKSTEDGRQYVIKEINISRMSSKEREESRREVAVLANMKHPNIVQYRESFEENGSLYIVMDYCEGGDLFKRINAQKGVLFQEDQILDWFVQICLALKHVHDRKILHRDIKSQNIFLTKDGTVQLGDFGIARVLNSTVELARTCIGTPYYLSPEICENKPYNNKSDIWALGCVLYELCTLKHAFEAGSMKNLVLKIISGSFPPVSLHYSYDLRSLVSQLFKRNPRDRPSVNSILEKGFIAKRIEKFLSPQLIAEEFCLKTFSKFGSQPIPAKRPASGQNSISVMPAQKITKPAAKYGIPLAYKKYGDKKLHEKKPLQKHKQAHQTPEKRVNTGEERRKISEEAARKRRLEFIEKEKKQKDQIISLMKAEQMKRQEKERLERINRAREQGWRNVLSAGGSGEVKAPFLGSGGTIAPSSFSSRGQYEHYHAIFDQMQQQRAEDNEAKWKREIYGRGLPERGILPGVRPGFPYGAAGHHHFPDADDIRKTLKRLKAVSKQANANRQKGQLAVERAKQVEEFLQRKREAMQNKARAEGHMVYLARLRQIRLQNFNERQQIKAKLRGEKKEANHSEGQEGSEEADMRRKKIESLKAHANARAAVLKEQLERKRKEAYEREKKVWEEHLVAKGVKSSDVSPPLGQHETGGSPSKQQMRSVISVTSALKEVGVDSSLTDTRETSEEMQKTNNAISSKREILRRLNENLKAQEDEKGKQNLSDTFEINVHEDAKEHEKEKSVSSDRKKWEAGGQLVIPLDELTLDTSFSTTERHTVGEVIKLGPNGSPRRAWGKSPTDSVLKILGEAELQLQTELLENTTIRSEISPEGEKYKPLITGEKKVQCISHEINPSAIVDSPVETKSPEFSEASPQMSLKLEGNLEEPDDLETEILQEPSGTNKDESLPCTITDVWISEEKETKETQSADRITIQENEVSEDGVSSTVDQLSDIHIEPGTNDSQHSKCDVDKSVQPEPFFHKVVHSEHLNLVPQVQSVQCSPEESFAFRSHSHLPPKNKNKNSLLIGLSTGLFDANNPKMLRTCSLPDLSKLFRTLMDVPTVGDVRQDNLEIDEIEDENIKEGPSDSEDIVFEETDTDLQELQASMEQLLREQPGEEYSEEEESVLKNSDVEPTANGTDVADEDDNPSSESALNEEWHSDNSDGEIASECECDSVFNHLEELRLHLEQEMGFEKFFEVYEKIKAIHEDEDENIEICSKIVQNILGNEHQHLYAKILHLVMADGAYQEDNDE
Calcium/calmodulin-dependent protein kinase kinase 1 (Homo sapiens), sequence (Q8N5S9 whole entry, looked up): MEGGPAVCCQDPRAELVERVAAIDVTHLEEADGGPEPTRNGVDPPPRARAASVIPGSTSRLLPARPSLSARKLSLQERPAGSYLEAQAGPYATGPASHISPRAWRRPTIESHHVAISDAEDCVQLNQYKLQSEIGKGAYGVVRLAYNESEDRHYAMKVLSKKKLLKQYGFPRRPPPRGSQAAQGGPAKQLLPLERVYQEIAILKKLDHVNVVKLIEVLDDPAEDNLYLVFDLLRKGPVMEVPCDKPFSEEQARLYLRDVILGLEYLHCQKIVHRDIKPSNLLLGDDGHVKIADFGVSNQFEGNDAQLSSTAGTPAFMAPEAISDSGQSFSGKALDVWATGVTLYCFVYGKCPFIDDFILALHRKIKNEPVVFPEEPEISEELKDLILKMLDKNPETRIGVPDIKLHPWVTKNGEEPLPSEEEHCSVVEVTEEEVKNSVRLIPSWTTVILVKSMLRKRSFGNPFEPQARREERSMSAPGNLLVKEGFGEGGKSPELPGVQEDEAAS
RAC-beta serine/threonine-protein kinase (Homo sapiens), sequence (P31751 whole entry): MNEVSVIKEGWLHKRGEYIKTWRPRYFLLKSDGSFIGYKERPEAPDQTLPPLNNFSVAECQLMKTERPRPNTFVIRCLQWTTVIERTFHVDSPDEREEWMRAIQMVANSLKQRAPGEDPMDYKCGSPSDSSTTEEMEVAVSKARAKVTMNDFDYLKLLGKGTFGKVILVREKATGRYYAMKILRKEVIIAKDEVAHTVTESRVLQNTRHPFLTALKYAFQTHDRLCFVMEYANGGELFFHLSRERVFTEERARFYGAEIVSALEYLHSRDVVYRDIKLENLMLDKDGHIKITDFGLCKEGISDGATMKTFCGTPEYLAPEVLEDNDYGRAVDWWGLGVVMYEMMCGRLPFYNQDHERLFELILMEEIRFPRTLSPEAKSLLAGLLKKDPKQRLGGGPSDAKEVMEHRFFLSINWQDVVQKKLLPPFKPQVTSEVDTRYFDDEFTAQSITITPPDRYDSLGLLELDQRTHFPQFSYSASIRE
Serine/threonine-protein kinase N2 (Homo sapiens), sequence (Q16513 whole entry, looked up): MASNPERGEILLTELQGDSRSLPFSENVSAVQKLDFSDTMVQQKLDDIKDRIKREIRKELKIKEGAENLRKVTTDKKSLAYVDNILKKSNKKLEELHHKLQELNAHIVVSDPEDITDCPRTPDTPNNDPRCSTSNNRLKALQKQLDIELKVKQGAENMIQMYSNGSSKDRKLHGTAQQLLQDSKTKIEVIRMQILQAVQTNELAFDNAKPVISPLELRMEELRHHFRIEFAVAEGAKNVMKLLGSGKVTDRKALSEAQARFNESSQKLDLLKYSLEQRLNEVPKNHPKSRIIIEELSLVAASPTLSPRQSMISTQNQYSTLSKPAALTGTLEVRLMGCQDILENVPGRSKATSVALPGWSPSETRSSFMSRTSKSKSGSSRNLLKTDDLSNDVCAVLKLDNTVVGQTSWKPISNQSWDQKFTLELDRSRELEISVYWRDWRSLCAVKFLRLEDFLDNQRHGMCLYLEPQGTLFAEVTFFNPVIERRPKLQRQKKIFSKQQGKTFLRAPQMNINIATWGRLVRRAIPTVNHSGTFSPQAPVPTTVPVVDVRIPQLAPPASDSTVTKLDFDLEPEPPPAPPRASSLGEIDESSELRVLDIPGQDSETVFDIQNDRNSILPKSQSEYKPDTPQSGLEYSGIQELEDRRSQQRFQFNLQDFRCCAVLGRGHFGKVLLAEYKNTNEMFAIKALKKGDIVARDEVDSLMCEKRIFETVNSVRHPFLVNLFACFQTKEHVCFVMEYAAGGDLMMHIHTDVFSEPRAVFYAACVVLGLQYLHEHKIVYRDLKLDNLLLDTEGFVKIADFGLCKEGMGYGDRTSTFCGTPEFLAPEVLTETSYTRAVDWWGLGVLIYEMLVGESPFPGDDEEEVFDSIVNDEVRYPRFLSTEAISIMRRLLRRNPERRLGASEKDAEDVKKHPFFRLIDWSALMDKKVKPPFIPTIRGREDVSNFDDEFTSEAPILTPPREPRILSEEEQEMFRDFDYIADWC
Dual specificity protein kinase CLK2 (Homo sapiens), sequence (P49760 whole entry, looked up): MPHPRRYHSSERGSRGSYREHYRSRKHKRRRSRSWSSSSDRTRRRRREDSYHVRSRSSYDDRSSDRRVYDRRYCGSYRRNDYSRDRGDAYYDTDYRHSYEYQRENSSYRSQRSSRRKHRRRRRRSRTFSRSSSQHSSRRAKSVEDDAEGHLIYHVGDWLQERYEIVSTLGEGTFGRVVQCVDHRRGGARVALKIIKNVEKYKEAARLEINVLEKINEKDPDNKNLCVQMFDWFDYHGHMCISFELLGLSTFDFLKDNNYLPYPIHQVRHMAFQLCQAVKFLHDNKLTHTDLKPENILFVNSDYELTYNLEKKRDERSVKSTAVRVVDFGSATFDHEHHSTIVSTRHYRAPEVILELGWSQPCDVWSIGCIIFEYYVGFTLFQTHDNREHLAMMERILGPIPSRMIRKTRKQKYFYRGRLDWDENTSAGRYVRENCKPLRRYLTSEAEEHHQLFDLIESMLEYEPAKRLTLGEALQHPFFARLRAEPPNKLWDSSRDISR
Mitogen-activated protein kinase kinase kinase 14 (Homo sapiens), sequence (Q99558 whole entry, looked up): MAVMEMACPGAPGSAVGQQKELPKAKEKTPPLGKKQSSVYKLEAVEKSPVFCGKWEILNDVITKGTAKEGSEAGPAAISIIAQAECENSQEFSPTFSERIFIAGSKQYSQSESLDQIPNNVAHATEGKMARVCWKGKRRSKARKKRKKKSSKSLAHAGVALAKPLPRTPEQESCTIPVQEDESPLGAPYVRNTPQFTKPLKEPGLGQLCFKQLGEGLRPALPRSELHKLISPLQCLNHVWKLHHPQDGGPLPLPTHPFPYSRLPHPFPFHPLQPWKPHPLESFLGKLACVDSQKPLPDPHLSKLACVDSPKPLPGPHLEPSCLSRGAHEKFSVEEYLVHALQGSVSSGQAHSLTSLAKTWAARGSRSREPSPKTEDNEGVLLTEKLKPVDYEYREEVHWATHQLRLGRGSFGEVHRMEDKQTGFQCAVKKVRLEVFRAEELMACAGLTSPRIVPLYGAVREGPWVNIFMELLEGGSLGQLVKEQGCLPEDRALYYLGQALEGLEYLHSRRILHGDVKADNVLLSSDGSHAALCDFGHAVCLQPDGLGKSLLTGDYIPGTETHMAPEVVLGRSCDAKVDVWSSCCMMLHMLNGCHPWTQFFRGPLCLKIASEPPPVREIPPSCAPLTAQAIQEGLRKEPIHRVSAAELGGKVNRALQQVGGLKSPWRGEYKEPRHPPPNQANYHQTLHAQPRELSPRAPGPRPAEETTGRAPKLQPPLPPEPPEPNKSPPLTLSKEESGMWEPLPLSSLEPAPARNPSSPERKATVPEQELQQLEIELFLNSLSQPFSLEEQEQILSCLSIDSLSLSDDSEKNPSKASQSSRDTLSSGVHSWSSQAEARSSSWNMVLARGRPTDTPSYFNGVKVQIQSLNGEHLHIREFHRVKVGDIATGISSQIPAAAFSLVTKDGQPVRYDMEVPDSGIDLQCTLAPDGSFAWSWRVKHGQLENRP

| SMILES | residual activity [1] | residual activity [2] | residual activity [3] | residual activity [4] | residual activity [5] | residual activity [6] | inhibition [7] | inhibition at 10 µM [8] | residual activity [9] | inhibition [10] | inhibition [11] | residual activity [12] | residual activity [13] | residual activity [14] | residual activity [15] | residual activity [16] | residual activity [17] | inhibition [18] | residual activity [19] | residual activity [20] | further results |
| --- | --- | --- | --- | --- | --- | --- | --- | --- | --- | --- | --- | --- | --- | --- | --- | --- | --- | --- | --- | --- | --- |
| CNC(=O)Nc1ccc2c(c1)CC[C@@]21OC(=O)N(CC(=O)N(Cc2ccc(F)cc2)[C@@H](C)C(F)(F)F)C1=O [A-485] | 94% | 68% | 90% | 97% | 67% | 100% | 11% | 19% (not active) | 70% | -4% | 7% | 66% | 97% | 56% | 99% | 97% | 81% | 9.06% | 55% | 100% | residual activity [21]: 80%; residual activity [22]: 100%; residual activity [23]: 90%; residual activity [24]: 100%; residual activity [25]: 100%; residual activity [26]: 97%; residual activity [27]: 100%; residual activity [28]: 73%; residual activity [29]: 90%; residual activity [30]: 63%; residual activity [31]: 79% |
| CNC(=O)Nc1ccc2c(c1)[C@@]1(CC2)OC(=O)N(CC(=O)N(Cc2ccc(F)cc2)[C@@H](C)C(F)(F)F)C1=O [A-486] | 95% | 77% | 100% | 100% | 68% | 85% | -7% | -5% (not active) | 100% | 4% | -1% | 77% | 100% | 52% | 98% | 100% | 100% | 8.23% | 73% | 79% | residual activity [21]: 99%; residual activity [22]: 98%; residual activity [23]: 95%; residual activity [24]: 100%; residual activity [25]: 94%; residual activity [26]: 100%; residual activity [27]: 100%; residual activity [28]: 80%; residual activity [29]: 93%; residual activity [30]: 96%; residual activity [31]: 100% |
